Data on 2 molecules can be found in patent US20230203482A1, “Methods of Rescuing Stop Codons via Genetic Reassignment with ACE-tRNA” (THE WISTAR INSTITUTE OF ANATOMY AND BIOLOGY, priority 2017, published 2023).

This data set concerns histidinol dehydrogenase (HDH) N94-TGA. The data set is described as follows: Mass spectrometry of suppressed histidinol dehydrogenase (cognate amino acid encoding). It counts as cell-based, E. coli. The settings on record: MS/MS of tryptic fragment. An excerpt: For expression in mammalian cells, the cDNA for the coding region and 200 base-pair of the 3′ untranslated region (UTR) of human CFTR was ligated into pcDNA3.1(+) (Promega, USA) using the KpnI and XbaI restriction enzymes. The G542tga and W1282tga mutations were introduced using QuickChange XL II (Stratagene, USA). For expression in Xenopus laevis oocytes, the cDNA for the coding region and 140 base-pair of the 5′ and 244 base-pair 3′ UTR of human CFTR was ligated into pGEM-HE (Promega, USA). Bothe the G542tga and W1282tga mutations were introduced using QuickChange XL II. The cDNA encoding the E. coli histidinol dehydrogenase was codon optimized for Mus musculus and synthesized (BioBasic Inc, Canada) with a c-terminal 8xHis-Strep-tag for protein purification from mammalian cells. The synthesized cDNA was ligated into pcDNA3.1(+) using EcoRI and XhoI restriction sites. The nonsense mutations tag, taa and tga were introduced using QuickChange XL II. […]

On to “Trpchr17.trna39: top performing tryptophan ACE-tRNA UGA suppressor, SEQ ID NO: 48”, for which the “mass modification of Asn at HDH N94” value is given as “+72 Da”.

B1: Glychr19.trna2: top performing glycine ACE-tRNA UGA suppressor, SEQ ID NO: 53 (nucleic acid)
chain: GCGTTGGTGGTATAGTGGTTAGCATAGCTGCCTTCAAAGCAGTTGACCCGGGTTCGATTCCCGGCCAACGCA
modifications: chemistry not fully specified
B1: the “mass modification of Asn at HDH N94” value was −57 Da.
